# Assays:
# [1] = tested on: circulating human melanoma cells; test: Frequency of circulating melanoma cells in the blood by flow cytometry; format: in vivo, NSG mice
# Source text: (§1) Melanoma specimens were obtained with informed consent from all patients according to protocols approved by the Institutional Review Boards of the University of Michigan Medical School (IRBMED approvals HUM00050754 and HUM00050085 (Quintana et al., 2012) and the University of Texas Southwestern Medical Center. Unless otherwise indicated, patient-derived xenografts were established by subcutaneously injecting 100 freshly dissociated melanoma cells into the right flanks of NOD/SCID IL2Rγ^null (NSG) mice in 25% high-protein Matrigel, or by injecting intravenously or intrasplenically, depending on the experiment. The subcutaneous tumors were measured every 10 days until any tumor in the mouse cohort reached 2.5 cm in its largest diameter. Mice were monitored daily for signs of distress and euthanized according to a standard body condition score or when their tumors reached 2.5 cm in largest diameter, whichever came first. […] After intravenous and intrasplenic injections mice were imaged every month until the bioluminescence signal was saturated, then mice were euthanized and organs were analyzed visually and by bioluminescence imaging for the presence of micro and macrometastases. […] Reporters of mitochondrial mass, mitochondrial membrane potential, and ROS were used to stain equal numbers of dissociated melanoma cells and analyzed by flow cytometry. […]
# [2] = tested on: human melanoma metastases in visceral organs; test: Metastatic disease burden by total bioluminescence signal from visceral organs; format: in vivo, NSG mice
# Source text: as §1
# [3] = tested on: human melanoma cells (M405, M481, UT10) transplanted subcutaneously; test: Growth of primary subcutaneous tumors of patient-derived melanoma xenografts in NSG mice; format: in vivo
# Source text: as §1
# melanoma = details: at 5 years; 2011 meta-analysis; adjuvant treatment of melanoma; cited from earlier work
molecule,measurement,setting,value
CN(Cc1cnc2nc(N)nc(N)c2n1)c1ccc(C(=O)N[C@@H](CCC(=O)O)C(=O)O)cc1 [Methotrexate],frequency of circulating melanoma cells in the blood,"[1]; methotrexate 1.25 mg/kg/day with thymidine and hypoxanthine, M405, M481, UT10, FIG. 5C",significantly reduced
same,metastatic disease burden,"[2]; methotrexate 1.25 mg/kg/day with thymidine and hypoxanthine, M405, M481, UT10, FIG. 5D",significantly reduced
same,growth of primary subcutaneous tumors,"[3]; low dose methotrexate 1.25 mg/kg/day with thymidine and hypoxanthine, M405, M481, UT10, vs DMSO control, FIG. 5B",no significant effect
"CC(=O)N[C@@H](CS)C(=O)O [NAC, N-acetyl-cysteine]",frequency of melanoma cells in the blood,"[1]; NAC 200 mg/kg/day s.c., mice transplanted with M405 and UT10, FIG. 4B",significantly increased
same,metastatic disease burden,"[2]; NAC 200 mg/kg/day s.c., mice transplanted with M405 and M481, FIG. 4C",significantly increased
same,growth of primary subcutaneous tumors,"[3]; NAC 200 mg/kg/day, daily subcutaneous injection, melanomas M405, M481, UT10, vs PBS, FIG. 4A",In no case did NAC treatment significantly affect
interferon,increase in survival,melanoma,3%

# Reference: patent US20180312844A1, “TREATMENT FOR CANCER METASTASIS” (The Board of Regents of the UIniversity of Texas System, priority 2015, published 2018)
